The test system of the assay is Endogenous Huntingtin Protein. Nature of the assay: Endogenous Huntingtin Protein Assay (ELISA-based MSD electrochemiluminescence). It counts as cell-based. Particulars: Table 1. Summed up:
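Huntingtin was captured overnight at 4 °C on plates coated with 1 μg/mL MW1 (polyQ-expanded) or MAB2166 antibody and BSA-blocked. Detection used a rabbit monoclonal and then a SULFO-TAG goat anti-rabbit antibody (0.25 μg/mL, 1 h each, room temperature). Signal was read by electrochemiluminescence.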
A general note: In an ELISA, binding on a coated surface is turned into a signal by an enzyme label.
As to `CN(c1nc2nnc(-c3ccc(-c4cn[nH]c4)cc3O)cc2s1)[C@@H]1CNC[C@@H]1F` [Compound 346, 2-(6-{[(3R,4S)-4-fluoropyrrolidin-3-yl](methyl)amino}[1,3]thiazolo[4,5-c]pyridazin-3-yl)-5-(1H-pyrazol-4-yl)phenol], the IC50 fell in the range of 100 to 500 nM.
The figure for `Cc1cc(-c2cnc3nc(N(C)C4CC(C)(C)NC(C)(C)C4)sc3c2)cc2cn(C)nc12` [Compound 17, 6-(2,7-dimethyl-2H-indazol-5-yl)-N-methyl-N-(2,2,6,6-tetramethylpiperidin-4-yl)[1,3]thiazolo[4,5-b]pyridin-2-amine] is 100 to 500 nM; for `Oc1cc(-c2cn[nH]c2)ccc1-c1cc2sc(NC3CCNC3)nc2nn1` (centres unmarked) [Compound 367, 5-(1H-pyrazol-4-yl)-2-{6-[(pyrrolidin-3-yl)amino][1,3]thiazolo[4,5-c]pyridazin-3-yl}phenol] it is 100 to 500 nM.
On to `Cc1cn2cc(-c3cc4sc(NC5CC(C)(C)NC(C)(C)C5)nc4cn3)cc(C#N)c2n1` [Compound 222, 2-methyl-6-{2-[(2,2,6,6-tetramethylpiperidin-4-yl)amino][1,3]thiazolo[4,5-c]pyridin-6-yl]imidazo[1,2-a]pyridine-8-carbonitrile], for which the IC50 is no more than 100 nM.
`COc1cc(-c2cc(F)c3nc(N(C)C4CC(C)(C)NC(C)(C)C4)sc3c2)nn2cc(C)nc12` [Compound 200, 4-fluoro-6-(8-methoxy-2-methylimidazo[1,2-b]pyridazin-6-yl)-N-methyl-N-(2,2,6,6-tetramethylpiperidin-4-yl)-1,3-benzothiazol-2-amine]: the concentration for half-maximal inhibition (IC50) was no more than 100 nM.
As for `CN(c1nc2nnc(-c3ccc(-c4c[nH]nc4F)cc3O)cc2s1)C1CCNCC1` [Compound 329, 5-(3-fluoro-1H-pyrazol-4-yl)-2-{6-[methyl(piperidin-4-yl)amino][1,3]thiazolo[4,5-c]pyridazin-3-yl}phenol], the IC50 is no more than 100 nM.
In turn, `CC1CC(c2nc3ccc(-c4ccc5nn(C)cc5c4)cc3s2)CC(C)N1` (centres unmarked) [Compound 190, 2-(2,6-dimethylpiperidin-4-yl)-6-(2-methyl-2H-indazol-5-yl)-1,3-benzothiazole] had a 50% inhibitory concentration (IC50) of 1000 to 3000 nM.
The compound `CN(c1nc2ncc(-c3cc(F)c4nn(C)cc4c3)nc2s1)C1CC(C)(C)NC(C)(C)C1` [Compound 150, 6-(7-fluoro-2-methyl-2H-indazol-5-yl)-N-methyl-N-(2,2,6,6-tetramethylpiperidin-4-yl)[1,3]thiazolo[4,5-b]pyrazin-2-amine] had an IC50 of no more than 100 nM.
The figure for `CN1[C@@H]2CC[C@H]1C[C@H](Nc1nc3cnc(-c4cc(F)c5nn(C)cc5c4)cc3s1)C2` [Compound 246, 6-(7-fluoro-2-methyl-2H-indazol-5-yl)-N-[(3-exo)-8-methyl-8-azabicyclo[3.2.1]oct-3-yl][1,3]thiazolo[4,5-c]pyridin-2-amine] is 1000 to 3000 nM; for `Cc1cc(-c2cc3sc(N(C)C4CCNCC4)nc3cn2)cc2cn(C)nc12` [Compound 30, 6-(2,7-dimethyl-2H-indazol-5-yl)-N-methyl-N-(piperidin-4-yl)[1,3]thiazolo[4,5-c]pyridin-2-amine] it is 100 to 500 nM; for `Cc1cn2nc(-c3cc(F)c4nc(N(C)C5CC6CCC(C5)N6)sc4c3)cc(C(N)=O)c2n1` (stereo not drawn) [Compound 236, 6-{2-[(3-exo)-8-azabicyclo[3.2.1]oct-3-yl(methyl)amino]-4-fluoro-1,3-benzothiazol-6-yl}-2-methylimidazo[1,2-b]pyridazine-8-carboxamide] it is no more than 100 nM.
Turning to `Cc1cn2cc(-c3cc4sc(N(C)C5CC(C)(C)NC(C)(C)C5)nc4cn3)cc(C(F)(F)F)c2n1` [Compound 116, N-methyl-6-[2-methyl-8-(trifluoromethyl)imidazo[1,2-a]pyridin-6-yl]-N-(2,2,6,6-tetramethylpiperidin-4-yl)[1,3]thiazolo[4,5-c]pyridin-2-amine], the IC50 is 100 to 500 nM.
The figure for `Cc1cn2cc(-c3cnc4nc(OC5CC(C)(C)NC(C)(C)C5)sc4n3)cc(C#N)c2n1` [Compound 181, 2-methyl-6-{2-[(2,2,6,6-tetramethylpiperidin-4-yl)oxy][1,3]thiazolo[4,5-b]pyrazin-6-yl}imidazo[1,2-a]pyridine-8-carbonitrile] is 100 to 500 nM; for `CN(c1nc2ncc(-c3ccc(-c4cn[nH]c4)cc3O)nc2s1)C1CCNCC1` [Compound 274, 2-{2-[methyl(piperidin-4-yl)amino][1,3]thiazolo[4,5-b]pyrazin-6-yl}-5-(1H-pyrazol-yl)phenol] it is no more than 100 nM; for `Cn1cc2cc(-c3cc4sc(C5CCNCC5)nc4cn3)cc(C#N)c2n1` [Compound 74, 2-methyl-5-[2-(piperidin-4-yl)[1,3]thiazolo[4,5-c]pyridin-6-yl]-2H-indazole-7-carbonitrile] it is no more than 100 nM.
As for `CN(c1nc2ccc(-c3ccc4nn(C)cc4c3)nc2s1)C1CCNCC1` [Compound 26, N-methyl-5-(2-methyl-2H-indazol-5-yl)-N-(piperidin-4-yl)[1,3]thiazolo[5,4-b]pyridin-2-amine], the figure is 500 to 1000 nM.
The figure for “5-{2-[(1,5-dimethyl-8-azabicyclo[3.2.1]oct-3-yl)(methyl)amino][1,3]thiazolo[5,4-d]pyrimidin-5-yl)-2-methyl-2H-indazole-7-carbonitrile [Compound 254]” is no more than 100 nM; for `CN(c1nc2cnc(-c3cc(C#N)c4nn(C)cc4c3)cc2s1)C1CC2CCCC(C1)N2` (centres unmarked) [Compound 252, 5-{2-[9-azabicyclo[3.3.1]non-3-yl(methyl)amino][1,3]thiazolo[4,5-c]pyridin-6-yl}-2-methyl-2H-indazole-7-carbonitrile] it is no more than 100 nM.
With `Cc1cn2cc(-c3cc4sc(N(C)C5CC6(C)CCC(C)(C5)N6)nc4cn3)ccc2n1` [Compound 300, N-[(1R,3s,5S)-1,5-dimethyl-8-azabicyclo[3.2.1]octan-3-yl]-N-methyl-6-(2-methylimidazo[1,2-a]pyridin-6-yl)[1,3]thiazolo[4,5-c]pyridin-2-amine], the IC50 is no more than 100 nM.
As for `CN(c1nc2nnc(-c3ccc(-c4cn[nH]c4)cc3O)cc2s1)C1CCN(CCO)CC1` [Compound 399, 2-(6-{[1-(2-hydroxyethyl)piperidin-4-yl](methyl)amino}[1,3]thiazolo[4,5-c]pyridazin-3-yl)-5-(1H-pyrazol-4-yl)phenol], the figure is no more than 100 nM.
As for `Cc1cn2nc(-c3cc(F)c4nc(N(C)C5CC6CCC(C5)N6)sc4c3)ccc2n1` (stereo not drawn) [Compound 209, N-[(3-exo)-8-azabicyclo[3.2.1]oct-3-yl]-4-fluoro-N-methyl-6-(2-methylimidazo[1,2-b]pyridazin-6-yl)-1,3-benzothiazol-2-amine], the figure is no more than 100 nM.
As for `CN(c1nc2ccc(-c3ccc4nn(C)cc4c3)cc2s1)C1CC(C)(C)NC(C)(C)C1` [Compound 20, N-methyl-6-(2-methyl-2H-indazol-5-yl)-N-(2,2,6,6-tetramethylpiperidin-4-yl)-1,3-benzothiazol-2-amine], the figure is no more than 100 nM.
For `Cc1cn2nc(-c3cc(F)c4nc(C5CCNCC5)sc4c3)cc(N)c2n1` [Compound 188, 6-[4-fluoro-2-(piperidin-4-yl)-1,3-benzothiazol-6-yl]-2-methylimidazo[1,2-b]pyridazin-8-amine], the half-inhibitory concentration (IC50) is no more than 100 nM.
As for `CN(c1nc2cnc(-c3cc(F)c4nn(C)cc4c3)cc2s1)[C@@H]1C[C@H]2CC[C@@H](C1)N2C` [Compound 241, 6-(7-fluoro-2-methyl-2H-indazol-5-yl)-N-methyl-N-[(3-exo)-8-methyl-8-azabicyclo[3.2.1]oct-3-yl][1,3]thiazolo[4,5-c]pyridin-2-amine], the figure is 100 to 500 nM; as for `CC[C@]12CC[C@](CC)(CC(N(C)c3nc4cnc(-c5cc(F)c6nc(C)cn6c5)nc4s3)C1)N2` (stereo partly drawn) [Compound 304, N-[(1R,3r,5S)-1,5-diethyl-8-azabicyclo[3.2.1]octan-3-yl]-5-(8-fluoro-2-methylimidazo[1,2-a]pyridin-6-yl)-N-methyl[1,3]thiazolo[5,4-d]pyrimidin-2-amine], 100 to 500 nM; as for `Cc1cc(-c2ncc3nc(N(C)C4CC(C)(C)NC(C)(C)C4)sc3c2F)cc2cn(C)nc12` [Compound 101, 6-(2,7-dimethyl-2H-indazol-5-yl)-7-fluoro-N-methyl-N-(2,2,6,6-tetramethylpiperidin-4-yl)[1,3]thiazolo[4,5-c]pyridin-2-amine], 100 to 500 nM.
As for `CN(c1nc2ccc(-c3cc(F)c4nn(C)cc4c3)nc2s1)C1CC(C)(C)NC(C)(C)C1` [Compound 128, 5-(7-fluoro-2-methyl-2H-indazol-5-yl)-N-methyl-N-(2,2,6,6-tetramethylpiperidin-4-yl)[1,3]thiazolo[5,4-b]pyridin-2-amine], the figure is 100 to 500 nM.
The figure for `Cc1cn2nc(-c3ncc4nc(N(C)C5CC(C)(C)NC(C)(C)C5)sc4n3)cc(C)c2n1` [Compound 184, 5-(2,8-dimethylimidazo[1,2-b]pyridazin-6-yl)-N-methyl-N-(2,2,6,6-tetramethylpiperidin-4-yl)[1,3]thiazolo[5,4-d]pyrimidin-2-amine] is 1000 to 3000 nM; for `CN(c1nc2cnc(-c3ccc4nn(C)cc4c3)cc2s1)C1CC(C)(C)NC(C)(C)C1` [Compound 32, N-methyl-6-(2-methyl-2H-indazol-5-yl)-N-(2,2,6,6-tetramethylpiperidin-4-yl)[1,3]thiazolo[4,5-c]pyridin-2-amine] it is no more than 100 nM.
`CN(c1nc2ccc(-c3cc(C#N)c4nn(C)cc4c3)nc2s1)C1CC2(C)CCC(C)(C1)N2` [Compound 293, 5-(2-{[(1R,3s,5S)-1,5-dimethyl-8-azabicyclo[3.2.1]octan-3-yl](methyl)amino}[1,3]thiazolo[5,4-b]pyridin-5-yl)-2-methyl-2H-indazole-7-carbonitrile] showed an IC50 of no more than 100 nM.
The figure for `Cc1cn2cc(-c3cnc4nc(N5CCNCC5)sc4n3)cc(F)c2n1` [Compound 174, 6-(8-fluoro-2-methylimidazo[1,2-a]pyridin-6-yl)-2-(piperazin-1-yl)[1,3]thiazolo[4,5-b]pyrazine] is 1000 to 3000 nM; for `Cc1cc(-c2nc3ccc(C4CCNCC4)cc3s2)cc2cn(C)nc12` [Compound 50, 2-(2,7-dimethyl-2H-indazol-5-yl)-6-(piperidin-4-yl)-1,3-benzothiazole] it is 100 to 500 nM.

The IC50 is the concentration needed to halve the response being measured. Lower therefore signals greater potency.

Values taken from US12139499B2, “Heteroaryl compounds for treating Huntington's disease” (PTC THERAPEUTICS, INC., priority 2018, dated 2024).
